This assay concerns mucosal Th1 and Th2 cells. In words: Frequencies and cytokine levels of macaque rectal mucosal T cells following SAMT-247 and PMA stimulation. The format is cell-based. From the text: Additionally, rectal tissue from 9 macaques was used for an in vitro study. The age-matched macaques from this separate study (P204) included 4 animals vaccinated against HIV and 5 naïve animals, all challenged with SHIV. Rectal tissue was obtained post challenge from 7 infected and 2 uninfected animals for the P204 study analysis. Extra cells were available from that collection and were used here for the in vitro study.
Frequencies and cytokine levels of macaque rectal mucosal NK cells and T cells following SAMT-247 and PMA stimulation. NK/ILC and T cell frequencies and cytokine levels were measured in macaque rectal mucosa. Freshly collected rectal biopsies were processed to single cells and cultured in R10 in the presence/or absence of SAMT-247 and/or PMA for 12 hours. Subsequently, cells were stained for live cells with Live/Dead Blue dye (cat. #L34962, 0.5 μl) from Thermofisher; followed by surface staining with the following: BUV737 anti-CD3 (SP34-2; cat. #741872, 5 μl), BV711 anti-CD4 (L200; cat. #563913, 5 μl), BV650 anti-NKp44 (P44-8; cat. #744302, 5 μl), Alexa700 anti-CD20 (2H7; cat. #560631, 5 μl), BV786 anti-CD45 (D058-1283; cat. #563861, 5 μl) from BD Biosciences; APC-H7 anti-CD11b (ICRF44; cat. #47-0118-42, 5 μl), PE-Cy5 anti-CD95 (ICRF44; cat. #15-0959-42, 5 μl) from eBioscience; BV570 anti-CD8 (RPA-T8; cat. #301038, 5 μl), BV605 anti-CCR6 (G034E3; cat. #353420, 5 μl), APC anti-CXCR3 (G025H7; cat. #353708, 5 μl), from Biolegend and PE-Cy7 anti-NKG2A (Z199; cat. #B10246, 5 μl) from Beckman coulter for 30 minutes at room temperature. This was followed by permeabilization with a FOX3-transcription buffer set (cat. #00-5523-00) from eBioscience according to the manufacture's recommendation and subsequently intracellular staining with the following: BV750 anti-TNF-α (MAB11; cat. #566359, 5 μl), BUV395 anti-IFN-γ (B27; cat. #563563, 5 μl), BV510 anti-GranB (GB11; cat. #563388, 5 μl), BV421 anti-IL-10 (JES3-9D7; cat. #564053, 5 μl) from BD Biosciences; PE-Cy5.5 anti-IL-17 (BL168; cat. #512314, 5 μl) from Biolegend; and FITC anti-Perforin (pf-344; cat. #3465-7, 5 μl) from MABTECH for 30 minutes at room temperature. Flow cytometry acquisitions were performed on a FACSymphony A5 and examined using FACSDiva software (BD Biosciences).

Entries after “also recorded” stand apart in the source; their conditions may differ. Some results are limits rather than exact numbers.

As for `CCCCCCCCCCCCCC(=O)O[C@@H]1[C@@H](C)[C@@]2(O)[C@@H](C=C(CO)C[C@]3(O)C(=O)C(C)=C[C@@H]23)[C@@H]2C(C)(C)[C@]12OC(C)=O` [PMA], the “overall mucosal Th1 and Th2 cell frequencies” value (PMA stimulation) is reported as “did not change”. In addition, the “Cytokines, Unstim vs PMA Stimulation” value is “>TNF-α; also recorded: >IL-10; also recorded: >IFN-γ” (mucosal Th1) and “>IFN-γ; also recorded: >TNF-α; also recorded: >IL-10” (mucosal Th2).

Values taken from patent US20240277829A1, “HIV-1 VACCINATION AND SAMT-247 MICROBICIDE TO PREVENT HIV-1 INFECTION” (priority 2021, published 2024).
